Reference: patent US8492376B2, “Heteroaryl-cyclohexyl-tetraazabenzo[e]azulenes” (Hoffmann-La Roche Inc., priority 2010, dated 2013)
Structures can show the parent of a compound that is named as a salt.

Target: T1, human V1a receptor (Homo sapiens, UniProt P37288)
T1 construct: expressed in transfected cells; host or cells: HEK293 cells, transiently transfected; cell membranes
Test: human V1a receptor binding studies (3H-Vasopressin, SPA beads)
Conditions: membranes from HEK293 cells transiently transfected with human V1a receptor, Ki calculated from IC50 by the Cheng-Prussoff equation, read-out: pKi (hV1a) (converted)
Protocol: The human V1a receptor was cloned by RT-PCR from total human liver RNA. The coding sequence was subcloned in an expression vector after sequencing to confirm the identity of the amplified sequence. […] Cell membranes were prepared from HEK293 cells transiently transfected with the expression vector and grown in 20 liter fermenters with the following protocol.
50 g of cells are resuspended in 30 ml freshly prepared ice cold Lyses buffer (50 mM HEPES, 1 mM EDTA, 10 mM magnesium dichloride adjusted to pH=7.4+complete cocktail of protease inhibitor (Roche Diagnostics)). Homogenized with Polytron for 1 min and solicited on ice for 2×2 minutes at 80% intensity (Vibrate solicitor). The preparation is centrifuged 20 min at 500 g at 4° C., the pellet is discarded and the supernatant centrifuged 1 hour at 43′000 g at 4° C. (19′000 rpm). The pellet is resuspended in 12.5 ml Lyses buffer+12.5 ml sucrose 20% and homogenized using a Polytron for 1-2 min. The protein concentration is determined by the Bradford method and aliquots are stored at −80° C. until use. For binding studies 60 mg Yttrium silicate SPA beads (Habersham®) are mixed with an aliquot of membrane in binding buffer (50 mM Tris, 120 mM sodium chloride, 5 mM potassium chloride, 2 mM calcium dichloride, 10 mM magnesium dichloride) for 15 minutes with mixing. 50 μl of bead/membrane mixture is then added to each well of a 96 well plate, followed by 50 μl of 4 nM 3H-Vasopressin (American Radiolabeled Chemicals). For total binding measurement 100 μl of binding buffer are added to the respective wells, for non-specific binding 100 μl of 8.4 mM cold vasopressin and for compound testing 100 μl of a serial dilution of each compound in 2% dimethyl sulfoxide. The plate is incubated 1 h at room temperature, centrifuged 1 min at 1000 g and counted on a Packard Top-Count. Non-specific binding counts are subtracted from each well and data is normalized to the maximum specific binding set at 100%. To calculate an IC50 the curve is fitted using a non-linear regression model (XLfit) and the Ki is calculated using the Cheng-Prussoff equation.

T1 sequence (P37288 whole entry): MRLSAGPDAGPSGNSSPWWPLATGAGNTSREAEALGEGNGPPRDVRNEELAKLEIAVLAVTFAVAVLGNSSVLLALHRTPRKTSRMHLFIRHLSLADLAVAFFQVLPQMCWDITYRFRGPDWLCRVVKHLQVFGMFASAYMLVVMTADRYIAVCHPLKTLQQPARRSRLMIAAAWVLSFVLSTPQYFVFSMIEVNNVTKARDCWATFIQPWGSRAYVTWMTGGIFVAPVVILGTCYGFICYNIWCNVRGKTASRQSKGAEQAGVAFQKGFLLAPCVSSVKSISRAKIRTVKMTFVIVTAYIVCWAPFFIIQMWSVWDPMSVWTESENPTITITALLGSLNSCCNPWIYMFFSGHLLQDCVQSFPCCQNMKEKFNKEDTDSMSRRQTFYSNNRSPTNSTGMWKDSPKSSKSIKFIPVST

| Structure (SMILES) | Ki [nM] |
| --- | --- |
| Fc1ccc([C@H]2CC[C@H](c3nnc4n3-c3ccc(Cl)cc3CNC4)CC2)nc1 [Example 23, trans-8-Chloro-1-[4-(5-fluoro-pyridin-2-yl)-cyclohexyl]-5,6-dihydro-4H-2,3,5,10b-tetraaza-benzo[e]azulene dihydrochloride] | 7.24 |
| CN1Cc2cc(Cl)ccc2-n2c(nnc2[C@H]2CC[C@H](c3ccc(F)cn3)CC2)C1 [Example 24, trans-8-Chloro-1-[4-(5-fluoro-pyridin-2-yl)-cyclohexyl]-5-methyl-5,6-dihydro-4H-2,3,5,10b-tetraaza-benzo[e]azulene] | 1 |
| Clc1ccc2c(c1)CNCc1nnc([C@H]3CC[C@H](c4cccnc4Cl)CC3)n1-2 [Example 52, trans-8-Chloro-1-[4-(2-chloro-pyridin-3-yl)-cyclohexyl]-5,6-dihydro-4H-2,3,5,10b-tetraaza-benzo[e]azulene] | 81.3 |
| CN1Cc2cc(Cl)ccc2-n2c(nnc2[C@H]2CC[C@H](c3cccnc3)CC2)C1 [Example 50, trans-8-Chloro-5-methyl-1-(4-pyridin-3-yl-cyclohexyl)-5,6-dihydro-4H-2,3,5,10b-tetraaza-benzo[e]azulene] | 4.57 |
| CC(C)c1cccc([C@H]2CC[C@H](c3nnc4n3-c3ccc(Cl)cc3CN(C(=O)OC(C)(C)C)C4)CC2)n1 [Example 10, trans-8-Chloro-1-[4-(6-isopropyl-pyridin-2-yl)-cyclohexyl]-4H,6H-2,3,5,10b-tetraaza-benzo[e]azulene-5-carboxylic acid tert-butyl ester] | 2.19 |
| Cc1cccc([C@H]2CC[C@H](c3nnc4n3-c3ccc(Cl)cc3CNC4)CC2)n1 [Example 5, trans-8-Chloro-1-[4-(6-methyl-pyridin-2-yl)-cyclohexyl]-5,6-dihydro-4H-2,3,5,10b-tetraaza-benzo[e]azulene] | 13.8 |
| CCc1cccc([C@H]2CC[C@H](c3nnc4n3-c3ccc(Cl)cc3CN(C(=O)OC(C)(C)C)C4)CC2)n1 [Example 7, trans-8-Chloro-1-[4-(6-ethyl-pyridin-2-yl)-cyclohexyl]-4H,6H-2,3,5,10b-tetraaza-benzo[e]azulene-5-carboxylic acid tert-butyl ester] | 1 |
| CC(C)(C)OC(=O)N1Cc2cc(Cl)ccc2-n2c(nnc2[C@H]2CC[C@H](c3cccc(F)n3)CC2)C1 [Example 19, trans-8-Chloro-1-[4-(6-fluoro-pyridin-2-yl)-cyclohexyl]-4H,6H-2,3,5,10b-tetraaza-benzoazulene-5-carboxylic acid tert-butyl ester] | 0.603 |
| CN1Cc2cc(Cl)ccc2-n2c(nnc2[C@H]2CC[C@H](c3cnccn3)CC2)C1 [Example 71, trans-8-Chloro-5-methyl-1-(4-pyrazin-2-yl-cyclohexyl)-5,6-dihydro-4H-2,3,5,10b-tetraaza-benzo[e]azulene] | 1.7 |
| CC(=O)N1Cc2cc(Cl)ccc2-n2c(nnc2[C@H]2CC[C@H](c3ncccc3F)CC2)C1 [Example 37, trans-1-{8-Chloro-1-[4-(3-fluoro-pyridin-2-yl)-cyclohexyl]-4H,6H-2,3,5,10b-tetraaza-benzo[e]azulen-5-yl}-ethanone] | 1.62 |
| CN1Cc2cc(Cl)ccc2-n2c(nnc2[C@H]2CC[C@@H](c3ncccn3)CC2)C1 [Example 62, cis-8-Chloro-5-methyl-1-(4-pyrimidin-2-yl-cyclohexyl)-5,6-dihydro-4H-2,3,5,10b-tetraaza-benzo[e]azulene] | 95.5 |
| CC(C)(C)OC(=O)N1Cc2cc(Cl)ccc2-n2c(nnc2[C@H]2CC[C@H](c3cc(Cl)ccn3)CC2)C1 [Example 25, trans-8-Chloro-1-[4-(4-chloro-pyridin-2-yl)-cyclohexyl]-4H,6H-2,3,5,10b-tetraaza-benzo[e]azulene-5-carboxylic acid tert-butyl ester] | 0.427 |
| Clc1ccc2c(c1)CNCc1nnc([C@H]3CC[C@H](c4cnccn4)CC3)n1-2 [Example 70, trans-8-Chloro-1-(4-pyrazin-2-yl-cyclohexyl)-5,6-dihydro-4H-2,3,5,10b-tetraaza-benzo[e]azulene] | 15.1 |
| CC(C)(C)OC(=O)N1Cc2cc(Cl)ccc2-n2c(nnc2[C@H]2CC[C@H](c3ncccn3)CC2)C1 [Example 57, trans-8-Chloro-1-(4-pyrimidin-2-yl-cyclohexyl)-4H,6H-2,3,5,10b-tetraaza-benzo[e]azulene-5-carboxylic acid tert-butyl ester] | 1.58 |
| CN(C)S(=O)(=O)N1Cc2cc(Cl)ccc2-n2c(nnc2[C@H]2CC[C@H](c3ncccc3F)CC2)C1 [Example 41, trans-8-Chloro-1-[4-(3-fluoro-pyridin-2-yl)-cyclohexyl]-4H,6H-2,3,5,10b-tetraaza-benzo[e]azulene-5-sulfonic acid dimethylamide] | 0.603 |
| CC(C)(C)OC(=O)N1Cc2cc(Cl)ccc2-n2c(nnc2[C@H]2CC[C@H](c3ccccn3)CC2)C1 [Example 1, trans-8-Chloro-1-(4-pyridin-2-yl-cyclohexyl)-4H,6H-2,3,5,10b-tetraaza-benzo[e]azulene-5-carboxylic acid tert-butyl ester] | 1.91 |
| Cc1nccc([C@H]2CC[C@H](c3nnc4n3-c3ccc(Cl)cc3CN(C(=O)OC(C)(C)C)C4)CC2)n1 [Example 66, trans-8-Chloro-1-[4-(2-methyl-pyrimidin-4-yl)-cyclohexyl]-4H,6H-2,3,5,10b-tetraaza-benzo[e]azulene-5-carboxylic acid tert-butyl ester] | 9.77 |
| CC(C)(C)OC(=O)N1Cc2cc(Cl)ccc2-n2c(nnc2[C@H]2CC[C@H](c3ncccc3F)CC2)C1 [Example 28, trans-8-Chloro-1-[4-(3-fluoro-pyridin-2-yl)-cyclohexyl]-4H,6H-2,3,5,10b-tetraaza-benzo[e]azulene-5-carboxylic acid tert-butyl ester] | 0.2 |
| Fc1cccnc1[C@H]1CC[C@@H](c2nnc3n2-c2ccc(Cl)cc2CNC3)CC1 [Example 46, cis-8-Chloro-1-[4-(3-fluoro-pyridin-2-yl)-cyclohexyl]-5,6-dihydro-4H-2,3,5,10b-tetraaza-benzo[e]azulene] | 200 |
| COc1cccc([C@H]2CC[C@H](c3nnc4n3-c3ccc(Cl)cc3CN(C)C4)CC2)n1 [Example 15, trans-8-Chloro-1-[4-(6-methoxy-pyridin-2-yl)-cyclohexyl]-5-methyl-5,6-dihydro-4H-2,3,5,10b-tetraaza-benzo[e]azulene] | 3.31 |
| CN1Cc2cc(Cl)ccc2-n2c(nnc2[C@H]2CC[C@H](c3ncccc3F)CC2)C1 [Example 30, trans-8-Chloro-1-[4-(3-fluoro-pyridin-2-yl)-cyclohexyl]-5-methyl-5,6-dihydro-4H-2,3,5,10b-tetraaza-benzo[e]azulene] | 0.603 |
| Fc1cccc([C@H]2CC[C@H](c3nnc4n3-c3ccc(Cl)cc3CNC4)CC2)n1 [Example 20, trans-8-Chloro-1-[4-(6-fluoro-pyridin-2-yl)-cyclohexyl]-5,6-dihydro-4H-2,3,5,10b-tetraaza-benzo[e]azulene] | 16.6 |
| CN1Cc2cc(Cl)ccc2-n2c(nnc2[C@H]2CC[C@H](c3ncc(F)cc3F)CC2)C1 [Example 87, trans-8-Chloro-1-[4-(3,5-difluoro-pyridin-2-yl)-cyclohexyl]-5-methyl-5,6-dihydro-4H-2,3,5,10b-tetraaza-benzo[e]azulene] | 1.29 |
| CN1Cc2cc(Cl)ccc2-n2c(nnc2[C@H]2CC[C@H](c3cc(Cl)ccn3)CC2)C1 [Example 27, trans-8-Chloro-1-[4-(4-chloro-pyridin-2-yl)-cyclohexyl]-5-methyl-5,6-dihydro-4H-2,3,5,10b-tetraaza-benzo[e]azulene] | 0.537 |
| CC(C)(C)OC(=O)N1Cc2cc(Cl)ccc2-n2c(nnc2[C@H]2CC[C@H](c3ncccc3Cl)CC2)C1 [Example 82, trans-8-Chloro-1-[4-(3-chloro-pyridin-2-yl)-cyclohexyl]-4H,6H-2,3,5,10b-tetraaza-benzo[e]azulene-5-carboxylic acid tert-butyl ester] | 0.501 |
| Fc1cccnc1[C@H]1CC[C@H](c2nnc3n2-c2ccc(Cl)cc2CN(CC(F)F)C3)CC1 [Example 34, trans-8-Chloro-5-(2,2-difluoro-ethyl)-[4-(3-fluoro-pyridin-2-yl)-cyclohexyl]-5,6-dihydro-4H-2,3,5,10b-tetraaza-benzo[e]azulene] | 0.186 |
| Cc1cc(C)nc([C@H]2CC[C@H](c3nnc4n3-c3ccc(Cl)cc3CN(C)C4)CC2)n1 [Example 65, trans-8-Chloro-1-[4-(4,6-dimethyl-pyrimidin-2-yl)-cyclohexyl]-5-methyl-5,6-dihydro-4H-2,3,5,10b-tetraaza-benzo[e]azulene] | 2.29 |
